Assay results as given in PubChem BioAssay (NCI).
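Following 48 hours of exposure in 96-well plates, responses at five concentrations were used to interpolate endpoints linearly. GI50 is the concentration that inhibits growth by half. At the TGI there is no net growth.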

Key:
Assay in all cases: NCI anticancer screen, dose series, 48 h
IGROV1 ovarian = tested on: IGROV1 ovarian
KM12 colon = tested on: KM12 colon
UO-31 renal = tested on: UO-31 renal
SN12C renal = tested on: SN12C renal
HCC-2998 colon = tested on: HCC-2998 colon
OVCAR-4 ovarian = tested on: OVCAR-4 ovarian
SW-620 colon = tested on: SW-620 colon
NCI-H23 lung = tested on: NCI-H23 lung
BT-549 breast = tested on: BT-549 breast
M14 melanoma = tested on: M14 melanoma
HL-60(TB) leukemia = tested on: HL-60(TB) leukemia
NCI-H460 lung = tested on: NCI-H460 lung
HS 578T breast = tested on: HS 578T breast
A498 renal = tested on: A498 renal
HCT-15 colon = tested on: HCT-15 colon
EKVX NSCLC = tested on: EKVX NSCLC
SF-268 CNS = tested on: SF-268 CNS
MOLT-4 leukemia = tested on: MOLT-4 leukemia
MDA-MB-231 breast = tested on: MDA-MB-231 breast
COLO 205 colon = tested on: COLO 205 colon
SK-OV-3 ovarian = tested on: SK-OV-3 ovarian
HOP-92 NSCLC = tested on: HOP-92 NSCLC
NCI/ADR-RES ovarian = tested on: NCI/ADR-RES ovarian
SNB-19 CNS = tested on: SNB-19 CNS
HT29 colon = tested on: HT29 colon
TK-10 renal = tested on: TK-10 renal
OVCAR-3 ovarian = tested on: OVCAR-3 ovarian
UACC-257 melanoma = tested on: UACC-257 melanoma
U251 CNS = tested on: U251 CNS
RXF 393 renal = tested on: RXF 393 renal
SK-MEL-5 melanoma = tested on: SK-MEL-5 melanoma
T-47D breast = tested on: T-47D breast
CCRF-CEM leukemia = tested on: CCRF-CEM leukemia
DU-145 prostate = tested on: DU-145 prostate
HCT-116 colon = tested on: HCT-116 colon
CAKI-1 renal = tested on: CAKI-1 renal
MALME-3M melanoma = tested on: MALME-3M melanoma
A549 NSCLC = tested on: A549 NSCLC
SK-MEL-2 melanoma = tested on: SK-MEL-2 melanoma
MCF7 breast = tested on: MCF7 breast
ACHN renal = tested on: ACHN renal
MDA-MB-468 breast = tested on: MDA-MB-468 breast
LOX IMVI melanoma = tested on: LOX IMVI melanoma
K-562 leukemia = tested on: K-562 leukemia
HOP-62 NSCLC = tested on: HOP-62 NSCLC
NCI-H522 lung = tested on: NCI-H522 lung
UACC-62 melanoma = tested on: UACC-62 melanoma
SF-539 CNS = tested on: SF-539 CNS
SF-295 CNS = tested on: SF-295 CNS
SR leukemia = tested on: SR leukemia
PC-3 prostate = tested on: PC-3 prostate
OVCAR-5 ovarian = tested on: OVCAR-5 ovarian
MDA-MB-435 = tested on: MDA-MB-435
SNB-75 CNS = tested on: SNB-75 CNS
786-0 renal = tested on: 786-0 renal
OVCAR-8 ovarian = tested on: OVCAR-8 ovarian
NCI-H226 lung = tested on: NCI-H226 lung
SK-MEL-28 melanoma = tested on: SK-MEL-28 melanoma
RPMI-8226 leukemia = tested on: RPMI-8226 leukemia

Structure (SMILES): O=C(CS(=O)(=O)c1oc(-c2ccc(Cl)cc2)nc1S(=O)(=O)c1ccc(Cl)cc1)N1CCOCC1
- GI50 (IGROV1 ovarian): 11 µM
- TGI (IGROV1 ovarian): 23.7 µM
- GI50 (KM12 colon): 29.5 µM
- TGI (KM12 colon): > 100 µM
- GI50 (UO-31 renal): 8.79 µM
- TGI (UO-31 renal): 21.1 µM
- GI50 (SN12C renal): 12.1 µM
- TGI (SN12C renal): 25.8 µM
- GI50 (HCC-2998 colon): 17.2 µM
- TGI (HCC-2998 colon): 40.8 µM
- GI50 (OVCAR-4 ovarian): 12.7 µM
- TGI (OVCAR-4 ovarian): 27.6 µM
- GI50 (SW-620 colon): 2.06 µM
- TGI (SW-620 colon): 4.8 µM
- GI50 (NCI-H23 lung): 13.4 µM
- TGI (NCI-H23 lung): 26.5 µM
- GI50 (BT-549 breast): 4.64 µM
- TGI (BT-549 breast): 16.8 µM
- GI50 (M14 melanoma): 6.75 µM
- TGI (M14 melanoma): 21 µM
- GI50 (HL-60(TB) leukemia): 4.49 µM
- TGI (HL-60(TB) leukemia): 34.9 µM
- GI50 (NCI-H460 lung): 16.5 µM
- TGI (NCI-H460 lung): 39.4 µM
- GI50 (HS 578T breast): 7.9 µM
- TGI (HS 578T breast): 36.4 µM
- GI50 (A498 renal): 26.8 µM
- TGI (A498 renal): 93.4 µM
- GI50 (HCT-15 colon): 2.27 µM
- TGI (HCT-15 colon): 5.68 µM
- GI50 (EKVX NSCLC): 12.1 µM
- TGI (EKVX NSCLC): 26.4 µM
- GI50 (SF-268 CNS): 15.1 µM
- TGI (SF-268 CNS): 33.7 µM
- GI50 (MOLT-4 leukemia): 2.54 µM
- TGI (MOLT-4 leukemia): 18.7 µM
- GI50 (MDA-MB-231 breast): 6.7 µM
- TGI (MDA-MB-231 breast): 19.3 µM
- GI50 (COLO 205 colon): 11.6 µM
- TGI (COLO 205 colon): 55.9 µM
- GI50 (SK-OV-3 ovarian): 40.8 µM
- TGI (SK-OV-3 ovarian): > 100 µM
- GI50 (HOP-92 NSCLC): 10.7 µM
- TGI (HOP-92 NSCLC): 28.6 µM
- GI50 (NCI/ADR-RES ovarian): 14.5 µM
- TGI (NCI/ADR-RES ovarian): 31.2 µM
- GI50 (SNB-19 CNS): 27.5 µM
- TGI (SNB-19 CNS): > 100 µM
- GI50 (HT29 colon): 4.32 µM
- TGI (HT29 colon): 40.2 µM
- GI50 (TK-10 renal): 14.3 µM
- TGI (TK-10 renal): 27.8 µM
- GI50 (OVCAR-3 ovarian): 3.3 µM
- TGI (OVCAR-3 ovarian): 10.5 µM
- GI50 (UACC-257 melanoma): 15.4 µM
- TGI (UACC-257 melanoma): 30.2 µM
- GI50 (U251 CNS): 38 µM
- TGI (U251 CNS): > 100 µM
- GI50 (RXF 393 renal): 2.58 µM
- TGI (RXF 393 renal): 8.82 µM
- GI50 (SK-MEL-5 melanoma): 24.3 µM
- TGI (SK-MEL-5 melanoma): 86.3 µM
- GI50 (T-47D breast): 3.32 µM
- TGI (T-47D breast): 16.3 µM
- GI50 (CCRF-CEM leukemia): 1.68 µM
- TGI (CCRF-CEM leukemia): 24.2 µM
- GI50 (DU-145 prostate): 12.3 µM
- TGI (DU-145 prostate): 24.8 µM
- GI50 (HCT-116 colon): 3.04 µM
- TGI (HCT-116 colon): 11.4 µM
- GI50 (CAKI-1 renal): 6.63 µM
- TGI (CAKI-1 renal): 19.4 µM
- GI50 (MALME-3M melanoma): 2.81 µM
- TGI (MALME-3M melanoma): 9.77 µM
- GI50 (A549 NSCLC): 45.9 µM
- TGI (A549 NSCLC): > 100 µM
- GI50 (SK-MEL-2 melanoma): 16.7 µM
- TGI (SK-MEL-2 melanoma): 32.4 µM
- GI50 (MCF7 breast): 4 µM
- TGI (MCF7 breast): 18.5 µM
- GI50 (ACHN renal): 3.17 µM
- TGI (ACHN renal): 11.3 µM
- GI50 (MDA-MB-468 breast): 2.52 µM
- TGI (MDA-MB-468 breast): 8.07 µM
- GI50 (LOX IMVI melanoma): 1.84 µM
- TGI (LOX IMVI melanoma): 4.27 µM
- GI50 (K-562 leukemia): 2.14 µM
- TGI (K-562 leukemia): > 100 µM
- GI50 (HOP-62 NSCLC): 18.1 µM
- TGI (HOP-62 NSCLC): 47.3 µM
- GI50 (NCI-H522 lung): 1.64 µM
- TGI (NCI-H522 lung): 3.51 µM
- GI50 (UACC-62 melanoma): 11.1 µM
- TGI (UACC-62 melanoma): 23.8 µM
- GI50 (SF-539 CNS): 7.94 µM
- TGI (SF-539 CNS): 20.5 µM
- GI50 (SF-295 CNS): 16.9 µM
- TGI (SF-295 CNS): 54.7 µM
- GI50 (SR leukemia): 2.86 µM
- TGI (SR leukemia): > 100 µM
- GI50 (PC-3 prostate): 11.9 µM
- TGI (PC-3 prostate): 31.5 µM
- GI50 (OVCAR-5 ovarian): 13.6 µM
- TGI (OVCAR-5 ovarian): 31.6 µM
- GI50 (MDA-MB-435): 12 µM
- TGI (MDA-MB-435): 25.7 µM
- GI50 (SNB-75 CNS): 4.89 µM
- TGI (SNB-75 CNS): 23.2 µM
- GI50 (786-0 renal): 7.65 µM
- TGI (786-0 renal): 21.8 µM
- GI50 (OVCAR-8 ovarian): 15.4 µM
- TGI (OVCAR-8 ovarian): 35.4 µM
- GI50 (NCI-H226 lung): 22.9 µM
- TGI (NCI-H226 lung): 91 µM
- GI50 (SK-MEL-28 melanoma): 12.1 µM
- TGI (SK-MEL-28 melanoma): 24.5 µM
- GI50 (RPMI-8226 leukemia): 5.2 µM
- TGI (RPMI-8226 leukemia): > 100 µM
